This note sets out measurements from US9040567B2, “BAX agonist, compositions, and methods related thereto” (Emory University, priority 2011, dated 2015).

Where two headings read alike, the source gives them in different places.

For data set [1], the system named is A549 human lung cancer cells. Description: sulforhodamine B (SRB) assay, surviving cell fraction. It counts as cell-based. A general note: The SRB assay estimates cell density from bound dye.
Data set [2] concerns A549 cells.
The test system of data set [3] is A549 cells. Description: apoptosis by ApoAlert Annexin-V kit in A549 cells. Conditions: 1 μM, 48 h.
Description: (§3) (B) H1299, A549 or SAEC cells were treated with various types of small molecules (1 μM) for 48 h. Cell viability was assessed using ApoAlert Annexin-V kit. DMSO or cisplatin (40 μM) was used as a negative or positive control, respectively.
Another data set deals with H1299 cells. Description: apoptosis by ApoAlert Annexin-V kit in H1299 cells. The note with it: 1 μM, 48 h.
In data set [4] the test system is A549 lung cancer xenografts. Description: TUNEL assay of apoptosis in xenograft tumor tissues. Conditions: 50 mg/kg for 24 h.
Description: Apoptosis in tumor tissues was measured by TUNEL assay.
Apoptosis in tumor tissues was analyzed by TUNEL assay.
Data set [5] concerns A549 lung cancer xenografts. Description: A549 subcutaneous lung tumor xenografts in nude mice.
Description: At day 6, tumors were removed and photographed. […] Tumor volume was estimated by caliper measurements, data are mean±s.e.m. […] Apoptosis in tumor tissues was measured by TUNEL assay.
The test system of data set [6] is primary normal small airway epithelial cells (SAEC). Description: apoptosis by ApoAlert Annexin-V kit in normal small airway epithelial cells. Conditions: 1 μM, 48 h.
Description: as §3
The next data set addresses T1, BAX (Homo sapiens, UniProt Q07812).
T1 construct: A549 cells expressing endogenous BAX were metabolically labeled; endogenous in cells; host or cells: A549 cells
Description: BAX phosphorylation in 32P-labeled A549 cells (autoradiography). It counts as cell-based. Conditions: nicotine 1 μM, 60 min. As to the method: (§1) (A) A549 cells expressing endogenous BAX were metabolically labeled with ^32P-orthophosphoric acid and treated with nicotine for 60 min. BAX was immunoprecipitated by using an agarose-conjugated BAX antibody. Phosphorylation of BAX was determined by autoradiography. […] (C) A549 cells were treated with cisplatin (40 μM) in the absence or presence of nicotine (1 μM) for various times as indicated. Cell viability was analyzed for Annexin-V and PI binding by flow cytometry. […] Cells were metabolically labeled with ^32P-orthophosphoric acid and treated with nicotine for 60 min. Phosphorylated GFP-tagged BAX was analyzed by autoradiography. […] After 48 h, cells were treated with cisplatin (Cis) in the absence or presence of nicotine for 24 h. Cell viability was analyzed as in (C).
(§2) To test whether BAX phosphorylation occurs in human lung cancer cells, A549 cells were metabolically labeled and treated with nicotine (1 μM) for 60 min. […] To test whether nicotine induces BAX phosphorylation at ser184, WT, S184A or S184E cDNA in the pcDNA3 mammalian expression vector was transfected into H157 cells.

The next data set deals with BAX Ser184. Description: BAX phosphorylation in H157 cells transfected with WT, S184A or S184E BAX. It counts as cell-based, human. The note with it: H157 cells expressing WT, 60 min. The method, then:
as §1, §2

The mark [7] stands for this setting: A549 cells, 48 h, SRB assay, read-out: IC50.

T1 sequence (Q07812 whole entry): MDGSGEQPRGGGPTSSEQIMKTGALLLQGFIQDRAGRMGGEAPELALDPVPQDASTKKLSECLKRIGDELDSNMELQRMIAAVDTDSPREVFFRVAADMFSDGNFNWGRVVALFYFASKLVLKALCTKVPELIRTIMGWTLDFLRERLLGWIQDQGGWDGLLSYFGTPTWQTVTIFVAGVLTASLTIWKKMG
Description for H1299 cells: as §3

In the case of `NCCOc1ncccc1C=C1c2ccccc2-c2ccc([N+](=O)[O-])cc21` [CYD-4-61, 2-[3-(2-Nitro-fluoren-9-ylidenemethyl)-pyridin-2-yloxy]-ethylamine], it took 0.026 µM to reach half-maximal inhibition in data set [1] (A549, 48 h) (IC50).

Regarding `O=[N+]([O-])c1ccc2c(c1)C(=Cc1ccccc1O)c1ccccc1-2` [SMBA1], the “apoptotic cell death in combination with cisplatin” value with A549 cells [2] (combination with cisplatin) is on record as “enhances apoptotic cell death”. In addition, the apoptotic effect result in the data set on A549 cells [3] and in the data set on H1299 cells was “potent apoptotic effect” throughout. Further, in data set [4], the “apoptosis in tumor tissues (TUNEL)” value is on record as “resulted in apoptosis in tumor tissues”. Further, the “tolerability of treatment doses” value in data set [5] (25, 50 or 75 mg/kg i.p. q.d. for two weeks) is reported as “well tolerated”. In addition, the “effect on established tumor xenografts (tumor volume)” value in data set [5] (25, 50 or 75 mg/kg i.p. q.d. for two weeks, preliminary results) is listed as “significant regression of established lung cancer xenografts”. Besides, in data set [5] (doses of 50-75 mg/kg), the “toxicities on liver, kidney and heart” value is “well tolerated without significant toxicities on liver, kidney and heart”. For the same compound, the “apoptotic effect on normal cells compared to H1299 or A549 cells” value in data set [6] is “significantly less apoptotic effect”.

Regarding `CN1CCCC1c1cccnc1` (stereo not drawn) [nicotine], the BAX phosphorylation result on BAX is recorded as “potently stimulates serine phosphorylation of BAX”. In addition, the “phosphorylation of WT and mutant BAX” value in the data set with BAX Ser184 is recorded as “induces phosphorylation of WT but not S184A or S184E mutant BAX”. The “survival of A549 cells following cisplatin treatment” value in the data set with A549 cells [2] (cisplatin 40 μM, nicotine 1 μM) was “significantly prolongs survival of A549 cells”.

Turning to `NCCOc1ccccc1C=C1c2ccccc2-c2ccc([N+](=O)[O-])cc21` [CYD-2-11, 2-[2-(2-Nitro-fluoren-9-ylidenemethyl)-phenoxy]-ethylamine], the IC50 (commonly the concentration that inhibits the measured activity by half) in data set [1] (setting [7]) was determined as 1.93 µM.

On to `O=[N+]([O-])c1ccc2c(c1)C(=Cc1ccccc1OC1CCNCC1)c1ccccc1-2` [CYD-2-13, 4-[2-(2-Nitro-fluoren-9-ylidenemethyl)-phenoxy]-piperidine], for which the IC50 in data set [1] (setting [7]) turned out to be 5.91 µM.

As for `CC(=O)N1CCN(CCOc2ccccc2C=C2c3ccccc3-c3ccc([N+](=O)[O-])cc32)CC1` [CYD-2-17, 1-(4-{2-[2-(2-Nitro-fluoren-9-ylidenemethyl)-phenoxy]-ethyl}-piperazin-1-yl)-ethanone], the IC50 in data set [1] (setting [7]) worked out at 5.08 µM.
